Laboratory results reported in publication PMC4113009, “Dihydroisoxazole inhibitors of Anopheles gambiae seminal transglutaminase AgTG3” (Malaria Journal, 2014).
Like-named read-outs stand apart in the source and are kept apart here.

Key:
[1] = biological target: T1, AgTG3 (Anopheles gambiae, UniProt D2K8K8); assay: biochemical; details: for Activity against AgTG3 in dose–response assay: up to 100 μM
Protocol: Plugin-C (25 μg/well) was incubated in black 96-well Ni-coated plates (Pierce 15342) for 2 h at room temperature or overnight at 4°C. Plates were washed three times with 200 μL of TBS and loaded with 0.5 μg of AgTG3 in 50 μL TBS buffer. DHI inhibitors were added for 1 h to block the enzyme, followed by 50 μL of 2× assay buffer (2× TBS, 20 mM CaCl2, 100 μM FITC-CAD, 2 mM DTT). Wells were incubated for 60 min at room temperature, washed three times with 200 μL of TBS, and filled to a final volume of 100 μL for fluorescence measurements in a microplate reader (Biotek Synergy 2). The z-score was calculated based on the mean and standard deviation of three replicates of inhibitor compared to a DMSO control, zi=x¯DMSO-x¯i/σDMSO+σi .
The targeted chemical library was screened for inhibition of AgTG3 at 100 μM in a FITC-CAD plate assay (Figure 3A), performed in triplicate as previously described. Hit-calling was based on >67% decrease in fluorescence compared to DMSO and z > 5. Seven compounds fulfilled these criteria in the primary assay.
To verify the results of this preliminary assay, dose–response curves in the range of 0.5–100 μM were determined for 27 structurally related compounds within the targeted library (Additional file 3: Table S2 and Additional file 4: Table S3). […] Selected stereoisomers present in the targeted library were compared in equivalent dose–response assays. Inhibition of AgTG3 was specific for the (S)-DHI isomer of 1 (Figure 4A), the (R) isomer (4) displaying no activity (IC50 > 100 μM).

[2] = biological target: T1, AgTG3; assay: AgTG3 plugin cross-linking assay (SDS-PAGE, FITC-CAD); format: biochemical; details: for Inhibition of plugin-C cross-linking by AgTG3 (controls): 10 mM EDTA, 50 mM IA, 5 mM CaCl2
Protocol: Recombinant AgTG3 was pre-incubated with 100 μM inhibitors overnight at room temperature. AgTG3, with and without pretreatment with inhibitors (1 μg), was added to plugin-C (20 μg) and 0.5 mM FITC-cadaverine (FITC-CAD) in 25 mM HEPES, pH 7.5, 10 mM CaCl2, 1 mM DTT. The reaction was incubated at room temperature for 2 h and quenched by heat denaturation of the proteins in the presence of Laemmli buffer. The extent of cross-linking was analysed by sodium dodecyl sulphate-polyacrylamide gel electrophoresis (SDS-PAGE). The gel was scanned using Alpha Imager 2200 software.
Additional assays were performed to examine whether compounds 1 and 3 would inhibit the cross-linking of plugin-C by AgTG3 in solution, with FITC-CAD for fluorescent detection of plugin-C. Results were assessed by SDS/PAGE and UV illumination to detect FITC-CAD (Figure 7). […] In the presence of enzyme, substrate and calcium a ladder of fluorescent bands of increasing molecular weight (MW) is observed (lane 4), corresponding to cross-linked oligomers of plugin also labeled by FITC-CAD. […] However, the levels of AgTG3 in solution assays are higher in the cross-linking assay than the primary screen. The levels of plugin-C were also higher, which competes with slow-binding irreversible inhibitors such as 1 and 3 for the active site of AgTG3.
Figure 7 Inhibition of plugin cross-linking by DHI inhibitors. Fluorescent image of SDS-PAGE for FITC-cadaverine labeling and cross-linking of plugin by AgTG3. Lanes (1–4): (1) AgTG3, (2) Plugin-C, (3) AgTG3 and plugin-C, (4) AgTG3, plugin-C, and 5 mM CaCl2. Lanes (5–8): AgTG3, plugin-C, 5 mM CaCl2 and (5) 10 mM EDTA, (6) 50 mM IA, (7) 100 μM 1, (8) 100 μM 3. (below) Coomassie stain indicating relative levels of monomeric Plugin-C.

[3] = biological target: T2, human caspase-1 (Homo sapiens, UniProt P29466); assay: Cysteine protease inhibition assay, caspase-1 (Ac-YVAD-pNA); format: biochemical; details: 3 at 100 μM, compared to a DMSO control, chromogenic assay
T2 construct: purchased Abcam
T2 sequence (P29466 120-297 limits assumed): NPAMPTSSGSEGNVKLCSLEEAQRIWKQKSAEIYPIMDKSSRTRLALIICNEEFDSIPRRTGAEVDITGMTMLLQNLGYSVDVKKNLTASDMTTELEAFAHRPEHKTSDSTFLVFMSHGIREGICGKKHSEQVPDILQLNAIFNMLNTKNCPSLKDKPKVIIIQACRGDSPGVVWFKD
T2 sequence (P29466 317-404 limits assumed): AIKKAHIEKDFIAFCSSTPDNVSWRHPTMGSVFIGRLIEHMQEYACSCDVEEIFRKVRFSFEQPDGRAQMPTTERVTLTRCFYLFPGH
Protocol: The activity of caspase-1 was determined by use of chromogenic substrate Ac-YVAD-pNA (Enzo Life Sciences, NY, USA). The assay was performed by adding 45 μL of 1 Unit caspase-1 (Abcam, MA, USA) and 5 μL of Ac-YVAD-pNA (final concentration, 5 μM) to 50 μL assay buffer (50 mM HEPES pH 7.4, 10 mM DTT, 1 mM EDTA, 0.1% CHAPS, 20% glycerol). Substrate cleavage after 1 h incubation at 37°C was measured by […] absorbance at 400 nm in a benchtop UV/Vis spectrophotometer (UV1800, Shimadzu, Kyoto, Japan).
(§1) Transglutaminases and cysteine proteases have a similar catalytic mechanism involving an active site cysteine and formation of a thioacyl intermediate. […] To test this hypothesis, the inhibition of two cysteine proteases, human caspase-1 and recombinant tobacco etch virus (TEV) protease by 3 at 100 μM were tested using a chromogenic and SDS-PAGE assay, respectively (Figure 9). […] Neither human caspase-1 nor TEV are endogenous proteins in A. gambiae, which may well contain other endogenous targets of 1–3, not least the two other transglutaminases in the A. gambiae genome.

[4] = biological target: T3, recombinant tobacco etch virus (TEV) protease (Tobacco etch virus, UniProt P04517); assay: Cysteine protease inhibition assay, TEV protease (GST-gp78 cleavage, SDS-PAGE); format: biochemical; details: 3 at 100 μM, compared to a DMSO control
T3 construct: recombinant tobacco etch virus (TEV) protease
Protocol: The activity of recombinant tobacco etch virus (TEV) protease was determined by cleavage of a fusion protein containing a TEV cleavage site between GST and a 17 kDa fragment of human gp78. TEV and GST-gp78 were incubated at 37°C for 10 min at a substrate:enzyme mass ratio of 10:1. The reaction was stopped by adding 3× loading buffer (150 mM Tris–HCl pH 6.8, 300 mM DTT, 6% (w/v) SDS, 0.06% (w/v) bromophenol blue, 30% (v/v) glycerol). Samples were heated at 95°C for 3 min and separated by 4–20% gradient SDS-PAGE.
as §1

[5] = parameters: method as in PMID 21275056; details: 50 mg/kg, intraperitoneal injection; cited from earlier work
[6] = tested on: model of human African trypanosomiasis; parameters: method as in PMID 21275056; details: cited from earlier work
[7] = tested on: tumor model; parameters: method as in PMID 22996645; details: cited from earlier work
[8] = tested on: Drosophila; parameters: method as in PMID 22996645; details: delivered orally ad libitum, 10 μM in agar; cited from earlier work
[9] = dose–response curves in the range of 0.5–100 μM, FITC-CAD plate assay, read-out: IC50 for inhibition of AgTG3
[10] = dose–response, 27 dihydroisoxazole inhibitors, read-out: IC50 (Supplementary Table 3, AgTG3)

T1 sequence (D2K8K8 entry or part of it): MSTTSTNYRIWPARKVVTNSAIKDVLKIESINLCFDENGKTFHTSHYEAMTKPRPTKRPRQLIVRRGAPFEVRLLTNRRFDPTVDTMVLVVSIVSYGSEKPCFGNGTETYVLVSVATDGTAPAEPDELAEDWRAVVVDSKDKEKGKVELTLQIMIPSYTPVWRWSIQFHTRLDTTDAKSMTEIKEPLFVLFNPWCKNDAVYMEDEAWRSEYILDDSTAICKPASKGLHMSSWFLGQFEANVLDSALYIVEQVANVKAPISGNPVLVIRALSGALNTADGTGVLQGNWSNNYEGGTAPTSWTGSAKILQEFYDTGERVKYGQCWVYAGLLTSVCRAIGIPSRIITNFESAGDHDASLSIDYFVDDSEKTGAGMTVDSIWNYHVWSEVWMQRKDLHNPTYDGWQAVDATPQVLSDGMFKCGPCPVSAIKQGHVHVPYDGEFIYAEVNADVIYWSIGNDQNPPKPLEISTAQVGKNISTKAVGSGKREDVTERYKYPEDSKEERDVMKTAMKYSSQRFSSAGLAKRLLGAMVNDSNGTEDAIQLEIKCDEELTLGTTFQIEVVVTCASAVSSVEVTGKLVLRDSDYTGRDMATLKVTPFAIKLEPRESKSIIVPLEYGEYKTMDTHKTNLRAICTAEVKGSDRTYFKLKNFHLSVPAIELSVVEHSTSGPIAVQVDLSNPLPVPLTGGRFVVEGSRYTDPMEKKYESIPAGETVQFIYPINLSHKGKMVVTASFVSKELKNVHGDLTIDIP
T3 sequence (P04517 2038-2279): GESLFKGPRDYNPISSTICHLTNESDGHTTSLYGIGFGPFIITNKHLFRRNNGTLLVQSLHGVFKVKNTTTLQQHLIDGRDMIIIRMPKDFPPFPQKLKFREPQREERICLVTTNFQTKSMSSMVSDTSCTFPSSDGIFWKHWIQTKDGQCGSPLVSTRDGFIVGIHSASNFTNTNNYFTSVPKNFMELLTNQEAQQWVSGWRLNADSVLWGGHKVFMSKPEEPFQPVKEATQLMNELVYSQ

O=C(N[C@@H](Cc1c[nH]c2ccc(F)cc12)C(=O)NC[C@H]1CC(Br)=NO1)OCc1cnc2ccccc2c1
IC50 [1, 9]: > 100 µM

O=C(O)CN(CCN(CC(=O)O)CC(=O)O)CC(=O)O [EDTA, reference compound]
Inhibition of plugin-C cross-linking by AgTG3 (controls) [2]: Cross-linking is inhibited

O=C(N[C@@H](Cc1ccc(I)cc1)C(=O)NC[C@@H]1CC(Br)=NO1)OCc1cnc2ccccc2c1 [Compound 11]
IC50 [1, 10]: > 100 µM | Activity against AgTG3 in dose–response assay [1]: inactive

O=C(N[C@@H](Cc1c[nH]c2ccc(F)cc12)C(=O)NC[C@@H]1CC(Br)=NO1)OCc1cnc2ccccc2n1
IC50 [1, 9]: 9.7 µM

O=C(N[C@@H](Cc1ccc(O)cc1)C(=O)NC[C@H]1CC(Br)=NO1)OCC1c2ccccc2-c2ccccc21 [Compound D71]
IC50 [1, 10]: > 100 µM

C[C@@](Cc1ccccc1)(NC(=O)OCc1cnc2ccccc2c1)C(=O)NC[C@@H]1CC(Br)=NO1 [Compound D91]
IC50 [1, 10]: > 100 µM

O=C(N[C@@H](Cc1c[nH]c2ccc(F)cc12)C(=O)NC[C@@H]1CC(Br)=NO1)OCc1ccnc2ccccc12
IC50 [1, 9]: 12.2 µM | IC50 [1, 10]: 12 µM

O=C(N[C@@H](Cc1c[nH]c2ccc(F)cc12)C(=O)NC[C@@H]1CC(Br)=NO1)OCc1cnc2ccccc2c1
IC50 [1, 9]: 3.1 µM | Inhibition of plugin-C cross-linking by AgTG3 ([2]; 100 μM inhibitor, 5 mM CaCl2, intensity of high MW bands): inhibited the cross-linking of plugin

NC(=O)CI [IA, iodoacetamide, reference compound]
Inhibition of caspase-1 [3]: potent inhibitor of the enzyme | Inhibition of TEV protease [4]: potent inhibitor of the enzyme | Inhibition of plugin-C cross-linking by AgTG3 (controls) [2]: Cross-linking is inhibited

O=C(N[C@@H](Cc1csc2ccccc12)C(=O)NC[C@@H]1CC(Br)=NO1)OCc1cnc2ccccc2c1
IC50 [1, 10]: 18 µM

O=C(N[C@@H](Cc1ccc(O)cc1)C(=O)NC[C@@H]1CC(Br)=NO1)OCC1c2ccccc2-c2ccccc21 [Compound D73]
IC50 [1, 10]: > 100 µM

O=C(N[C@@H](Cc1ccc(O)cc1)C(=O)NC[C@@H]1CC(Br)=NO1)OCc1ccccc1 [Compound D27]
IC50 [1, 10]: > 100 µM

CN(C(=O)OCc1cnc2ccccc2c1)[C@@H](Cc1ccccc1)C(=O)NC[C@@H]1CC(Br)=NO1 [Compound D83]
IC50 [1, 10]: > 100 µM

O=C(N[C@@H](Cc1ccccc1F)C(=O)NC[C@@H]1CC(Br)=NO1)OCc1cnc2ccccc2c1 [Compound 8]
IC50 [1, 9]: ~30 µM | IC50 [1, 10]: 28 µM

O=C(N[C@@H](Cc1ccccc1)C(=O)NC[C@@H]1CC(Br)=NO1)OCc1cnc2ccccc2c1 [Compound 5]
IC50 [1, 9]: 29 µM

O=C(N[C@@H](Cc1ccc(O)cc1)C(=O)NC[C@H]1CC(Br)=NO1)OCc1ccccc1 [Compound D26]
IC50 [1, 10]: > 100 µM

O=C(N[C@@H](Cc1ccc(O)cc1)C(=O)NC[C@H]1CC(Br)=NO1)OCc1cnc2ccccc2c1 [Compound D62]
IC50 [1, 10]: > 100 µM

O=C(N[C@@H](Cc1cccc2ccccc12)C(=O)NC[C@@H]1CC(Br)=NO1)OCc1cnc2ccccc2c1 [Compound D86]
IC50 [1, 10]: > 100 µM

C#Cc1ccc(COC(=O)N[C@@H](Cc2ccc(O)cc2)C(=O)NC[C@@H]2CC(Br)=NO2)cc1 [Compound D142]
IC50 [1, 10]: > 100 µM

O=C(N[C@H](Cc1ccccc1)C(=O)NC[C@@H]1CC(Br)=NO1)OCc1cnc2ccccc2c1 [Compound 6]
IC50 [1, 10]: > 100 µM | Activity against AgTG3 in dose–response assay [1]: inactive

CC(C)(C)OC(=O)N[C@@H](Cc1c[nH]c2ccc(F)cc12)C(=O)NC[C@@H]1CC(Br)=NO1
IC50 [1, 9]: 56 µM

[N-]=[N+]=Nc1ccc(COC(=O)N[C@@H](Cc2ccc(O)cc2)C(=O)NC[C@@H]2CC(Br)=NO2)cc1 [Compound D143]
IC50 [1, 10]: > 100 µM

N[C@H](C(=O)O)[C@@H]1CC(Br)=NO1 [3-bromoacivicin]
Acute toxicity in mice [5]: no acute toxicity | Activity in vivo in a model of human African trypanosomiasis [6]: active in vivo

N[C@H](C(=O)O)[C@@H]1CC(Cl)=NO1 [Acivicin, acivicin]
Activity in vivo in a tumor model [7]: active in vivo | Toxicity to Drosophila [8]: non-toxic

O=C(N[C@@H](CCc1ccccc1)C(=O)NC[C@@H]1CC(Br)=NO1)OCc1cnc2ccccc2c1 [Compound D85]
IC50 [1, 10]: > 100 µM

C[C@@H](c1ccccc1)[C@H](NC(=O)OCc1cnc2ccccc2c1)C(=O)NC[C@@H]1CC(Br)=NO1 [Compound D94]
IC50 [1, 10]: 84 µM

O=C(N[C@@H](Cc1c[nH]c2ccc(O)cc12)C(=O)NC[C@@H]1CC(Br)=NO1)OCc1cnc2ccccc2c1
IC50 [1, 9]: 4.3 µM

O=C(N[C@@H](Cc1ccc(-c2ccccc2)cc1)C(=O)NC[C@@H]1CC(Br)=NO1)OCc1cnc2ccccc2c1 [Compound D84]
IC50 [1, 10]: > 100 µM
